Assay [1] relates to MOLM-13 cells. Description: Cell viability assay (CellTiter-Glo) in MOLM-13 cells. The class given is cell-based. The settings on record: for pIC50: 72 h, compound alone, read-out: MOLM-13 IC50. The method, then: (§1) Cell Culture: RS4;11, MV4;11, MOLM-13 and other cells were cultured at 37° C. with 5% CO2 in RPMI 1640 or DMEM Medium supplemented with 10% fetal bovine serum. Cells were authenticated using the short tandem repeat (STR) assays. Mycoplasma test results were negative.
Cell viability assays: Cells were seeded at a density of 5000 cells per well in 96-well assay plates and treated with test compounds following a 8-point or 12-point 3-fold serial dilution. Three days later, cell viability was determined using the CellTiter-Glo assay kit according to the manufacturer's instructions. The dose-response curves were determined and IC50 values were calculated using the GraphPad Prism software following a nonlinear regression (least squares fit) method. […]
(Cellular ATP, detected with luciferase, serves as a proxy for viable cell number.)

The test system of assay [2] is MV4;11 cells. Description: Cell viability assay (CellTiter-Glo) in MV4;11 cells. The class given is cell-based. The settings on record: read-out: MV4; for pIC50: compound alone, 11 IC50. The method, then:
as §1
Cell viability assays: Cells were seeded at a density of 5000 cells per well in 96-well assay plates and treated with test compounds following a 8-point or 12-point 3-fold serial dilution. Three days later, cell viability was determined using the CellTiter-Glo assay kit according to the manufacturer's instructions. The dose-response curves were determined and IC50 values were calculated using the GraphPad Prism software following a nonlinear regression (least squares fit) method.
The IC50 values (nM) of each compound were determined in MV4;11 and MOLM-13 cells with or without gilteritinib (10 nM for MV4;11; and 20 nM for MOML-13) as described in the Materials and Methods subsection and calculated using the GraphPad Prism 5.0 software.

[3] abbreviates: Homo sapiens, MOLM-13 cells, three days.
[4] abbreviates: Homo sapiens, MV4-11, 72 h, MV4;11 cells, three days.
[5] abbreviates: MOLM-13 cells, with gilteritinib, three days, read-out: MOLM-13 IC50 (nM) + 10 nM Gil.
The mark [6] stands for this setting: MV4;11 cells, with 10 nM gilteritinib, three days, 11 IC50 (nM) + 10 nM Gil.

pIC50: −log10 of the molar value. Read-outs that look alike come from different tables or passages of the source.

Turning to `Cc1nc(-c2cn([C@H]3C[C@@H]3CNc3ccc4c(c3)C(=O)N(C3CCC(=O)NC3=O)C4=O)nc2C2CC2)ccc1F` (relative stereo) [GS-643, 5-(((Trans-2-(3-cyclopropyl-4-(5-fluoro-6-methylpyridin-2-yl)-1H-pyrazol-1-yl)cyclopropyl)methyl)amino)-2-(2,6-dioxopiperidin-3-yl)isoindoline-1,3-dione], the pIC50 in assay [1] (setting [3]) and in assay [2] (setting [4]) was under 6.00 throughout.
Consider `O=C1CCC(N2C(=O)c3ccc(NC[C@H]4C[C@H](n5cc(-c6cc7c(cn6)cnn7CC(F)(F)F)c(C6CC6)n5)C4)cc3C2=O)C(=O)N1` (relative stereo) [GS-704, 5-(((Trans-3-(3-cyclopropyl-4-(1-(2,2,2-trifluoroethyl)-1H-pyrazolo[4,3-c]pyridin-6-yl)-1H-pyrazol-1-yl)cyclobutyl)methyl)amino)-2-(2,6-dioxopiperidin-3-yl)isoindoline-1,3-dione], for which the pIC50 in assay [1] (setting [3]) and in assay [2] (setting [4]) was 7.00 to 8.00 throughout. Further, the IC50 in assay [1] (setting [5]) and in assay [2] (setting [6]) was under 10 nM in each case.
Turning to `O=C1CCC(N2C(=O)c3ccc(NC[C@H]4C[C@H](n5cc(-c6cccc(N7CCCC7)n6)c(C6CC6)n5)C4)cc3C2=O)C(=O)N1` (relative stereo) [GS-748, 5-(((Trans-3-(3-cyclopropyl-4-(6-(pyrrolidin-1-yl)pyridin-2-yl)-1H-pyrazol-1-yl)cyclobutyl)methyl)amino)-2-(2,6-dioxopiperidin-3-yl)isoindoline-1,3-dione], the pIC50 in assay [1] (setting [3]) and in assay [2] (setting [4]) was 7.00 to 8.00 each time. Besides, the IC50 in assay [1] (setting [5]) and in assay [2] (setting [6]) was under 10 nM throughout.
In the case of `O=C1CCC(N2C(=O)c3ccc(OC[C@H]4C[C@H](n5cc(-c6cnc7ccccc7n6)c(C6CC6)n5)C4)cc3C2=O)C(=O)N1` (stereo partly drawn) [GS-640, 5-((Trans-3-(3-cyclopropyl-4-(quinoxalin-2-yl)-1H-pyrazol-1-yl)cyclobutyl)methoxy)-2-(2,6-dioxopiperidin-3-yl)isoindoline-1,3-dione], the pIC50 in assay [1] (setting [3]) and in assay [2] (setting [4]) was under 6.00 throughout. For the same molecule, the IC50 in assay [1] (setting [5]) and in assay [2] (setting [6]) was 100 to 1000 nM in each case.
With `O=C1CCC(N2C(=O)c3ccc(NC[C@H]4C[C@H](n5cc(-c6ncccc6OC6CC6)c(C6CC6)n5)C4)cc3C2=O)C(=O)N1` (stereo partly drawn) [GS-641, 5-(((Trans-3-(4-(3-cyclopropoxypyridin-2-yl)-3-cyclopropyl-1H-pyrazol-1-yl)cyclobutyl)methyl)amino)-2-(2,6-dioxopiperidin-3-yl)isoindoline-1,3-dione], the pIC50 in assay [1] (setting [3]) and in assay [2] (setting [4]) was over 8.00 throughout. Besides, the IC50 in assay [1] (setting [5]) and in assay [2] (setting [6]) was under 10 nM each time.
With `O=C1CCC(N2C(=O)c3ccc(NCCCn4cc(-c5cnc6ccccc6n5)c(C5CC5)n4)cc3C2=O)C(=O)N1` (stereo not shown) [GS-642, 5-((3-(3-Cyclopropyl-4-(quinoxalin-2-yl)-1H-pyrazol-1-yl)propyl)amino)-2-(2,6-dioxopiperidin-3-yl)isoindoline-1,3-dione], the pIC50 in assay [1] (setting [3]) and in assay [2] (setting [4]) was 7.00 to 8.00 throughout. The IC50 in assay [1] (setting [5]) and in assay [2] (setting [6]) was under 10 nM throughout.
Turning to `O=C1CCC(N2C(=O)c3ccc(NC[C@H]4C[C@H](n5cc(-c6cnc7ccc(N8CC(O)C8)cc7n6)c(C6CC6)n5)C4)cc3C2=O)C(=O)N1` (stereo partly drawn) [GS-644, 5-(((Trans-3-(3-cyclopropyl-4-(7-(3-hydroxyazetidin-1-yl)quinoxalin-2-yl)-1H-pyrazol-1-yl)cyclobutyl)methyl)amino)-2-(2,6-dioxopiperidin-3-yl)isoindoline-1,3-dione], the pIC50 in assay [1] (setting [3]) and in assay [2] (setting [4]) was 7.00 to 8.00 in each case. Moreover, the IC50 in assay [1] (setting [5]) and in assay [2] (setting [6]) was under 10 nM each time.
Turning to `Cc1nc(-c2cn(CC3CC3CNc3ccc4c(c3)C(=O)N(C3CCC(=O)NC3=O)C4=O)nc2C2CC2)ccc1F` (stereo not shown) [GS-645, 5-(((2-((3-Cyclopropyl-4-(5-fluoro-6-methylpyridin-2-yl)-1H-pyrazol-1-yl)methyl)cyclopropyl)methyl)amino)-2-(2,6-dioxopiperidin-3-yl)isoindoline-1,3-dione], the pIC50 in assay [1] (setting [3]) and in assay [2] (setting [4]) was under 6.00 throughout. In addition, in assay [1] (setting [5]), the IC50 fell in the range of 100 to 1000 nM.
Consider `COC1CCCCC1c1cn([C@H]2C[C@H](CNc3ccc4c(c3)C(=O)N(C3CCC(=O)NC3=O)C4=O)C2)nc1C1CC1` (stereo partly drawn) [GS-646, 5-(((Trans-3-(3-cyclopropyl-4-(2-methoxycyclohexyl)-1H-pyrazol-1-yl)cyclobutyl)methyl)amino)-2-(2,6-dioxopiperidin-3-yl)isoindoline-1,3-dione], for which the pIC50 is 6.00 to 7.00 in assay [1] (setting [3]) and 7.00 to 8.00 in assay [2] (setting [4]). Besides, the IC50 in assay [1] (setting [5]) and in assay [2] (setting [6]) was 10 to 100 nM in each case.
For the molecule `O=C1CCC(N2C(=O)c3ccc(NC[C@H]4C[C@H](n5cc(-c6cccc(N7CC(O)C7)n6)c(C6CC6)n5)C4)cc3C2=O)C(=O)N1` (stereo partly drawn) [GS-647, 5-(((Trans-3-(3-cyclopropyl-4-(6-(3-hydroxyazetidin-1-yl)pyridin-2-yl)-1H-pyrazol-1-yl)cyclobutyl)methyl)amino)-2-(2,6-dioxopiperidin-3-yl)isoindoline-1,3-dione], the pIC50 in assay [1] (setting [3]) and in assay [2] (setting [4]) was under 6.00 throughout. The IC50 in assay [1] (setting [5]) was 10 to 100 nM; in assay [2] (setting [6]) it was 100 to 1000 nM.
As to `O=C1CCC(N2C(=O)c3ccc(NC[C@H]4C[C@H](n5nc(C6CC6)c6nccnc65)C4)cc3C2=O)C(=O)N1` (stereo partly drawn) [GS-648, 5-(((Trans-3-(3-cyclopropyl-1H-pyrazolo[3,4-b]pyrazin-1-yl)cyclobutyl)methyl)amino)-2-(2,6-dioxopiperidin-3-yl)isoindoline-1,3-dione], the pIC50 in assay [1] (setting [3]) and in assay [2] (setting [4]) was under 6.00 in each case. For the same molecule, the IC50 in assay [1] (setting [5]) fell in the range of 100 to 1000 nM.
Turning to `Cn1ncc2ccnc(-c3cn([C@H]4C[C@H](CNc5ccc6c(c5)C(=O)N(C5CCC(=O)NC5=O)C6=O)C4)nc3C3CC3)c21` (stereo partly drawn) [GS-649, 5-(((trans-3-(3-Cyclopropyl-4-(1-methyl-1H-pyrazolo[3,4-c]pyridin-7-yl)-1H-pyrazol-1-yl)cyclobutyl)methyl)amino)-2-(2,6-dioxopiperidin-3-yl)isoindoline-1,3-dione], the pIC50 is 7.00 to 8.00 in assay [1] (setting [3]) and over 8.00 in assay [2] (setting [4]). The IC50 in assay [1] (setting [5]) and in assay [2] (setting [6]) was under 10 nM in each case.
Take `CN(C)c1ccccc1-c1cn([C@H]2C[C@H](CNc3ccc4c(c3)C(=O)N(C3CCC(=O)NC3=O)C4=O)C2)nc1C1CC1` (stereo partly drawn) [GS-650, 5-(((trans-3-(3-Cyclopropyl-4-(2-(dimethylamino)phenyl)-1H-pyrazol-1-yl)cyclobutyl)methyl)amino)-2-(2,6-dioxopiperidin-3-yl)isoindoline-1,3-dione]: the values for the pIC50 in assay [1] (setting [3]) and in assay [2] (setting [4]) were 6.00 to 7.00 and 7.00 to 8.00, respectively. Besides, the IC50 in assay [1] (setting [5]) and in assay [2] (setting [6]) was 10 to 100 nM throughout.
With `O=C1CCC(N2Cc3cc(NC[C@H]4C[C@H](n5cc(-c6cnc7ccccc7n6)c(C6CC6)n5)C4)ccc3C2=O)C(=O)N1` (stereo partly drawn) [GS-651, 3-(5-(((trans-3-(3-Cyclopropyl-4-(quinoxalin-2-yl)-1H-pyrazol-1-yl)cyclobutyl)methyl)amino)-1-oxoisoindolin-2-yl)piperidine-2,6-dione], the pIC50 is 7.00 to 8.00 in assay [1] (setting [3]) and over 8.00 in assay [2] (setting [4]). The IC50 in assay [1] (setting [5]) and in assay [2] (setting [6]) was under 10 nM in each case.
With `O=C1CCC(N2C(=O)c3ccc(NC[C@H]4C[C@H](n5cc(-c6ccccc6N6CCNCC6)c(C6CC6)n5)C4)cc3C2=O)C(=O)N1` (stereo partly drawn) [GS-652, 5-(((Trans-3-(3-cyclopropyl-4-(2-(piperazin-1-yl)phenyl)-1H-pyrazol-1-yl)cyclobutyl)methyl)amino)-2-(2,6-dioxopiperidin-3-yl)isoindoline-1,3-dione], the pIC50 in assay [1] (setting [3]) and in assay [2] (setting [4]) was under 6.00 each time. Moreover, the IC50 in assay [1] (setting [5]) was in the range of 100 to 1000 nM; in assay [2] (setting [6]), 10 to 100 nM.
Turning to `O=C1CCC(N2C(=O)c3ccc(NC[C@H]4C[C@H](n5cc(-c6cccc(N7CCC7)c6)c(C6CC6)n5)C4)cc3C2=O)C(=O)N1` (stereo partly drawn) [GS-653, 5-(((Trans-3-(4-(3-(azetidin-1-yl)phenyl)-3-cyclopropyl-1H-pyrazol-1-yl)cyclobutyl)methyl)amino)-2-(2,6-dioxopiperidin-3-yl)isoindoline-1,3-dione], the IC50 in assay [1] (Homo sapiens, MOLM-13, 72 h, read-out: MOLM-13 IC50 (nM)) was over 1000 nM; in assay [1] (read-out: MOLM-13 IC50 (nM) + 10 nM Gil, MOLM-13 cells, with gilteritinib, three days), 10 to 100 nM; in assay [2] (Homo sapiens, MV4-11, 72 h, 11 IC50 (nM)), 100 to 1000 nM; in assay [2] (11 IC50 (nM) + 10 nM Gil, MV4;11 cells, with 10 nM gilteritinib, three days) it was 10 to 100 nM.
Regarding `Cc1nc(-c2cn([C@H]3C[C@H](CNc4ccc5c(c4)CN([C@@H]4CCC(=O)NC4=O)C5=O)C3)nc2C2CC2)ccc1F` [GS-801, (R)-3-(5-(((trans-3-(3-cyclopropyl-4-(5-fluoro-6-methylpyridin-2-yl)-1H-pyrazol-1-yl)cyclobutyl)methyl)amino)-1-oxoisoindolin-2-yl)piperidine-2,6-dione], the pIC50 in assay [1] (setting [3]) was 7.00 to 8.00.
